For the test, the target named is SIK2 (Homo sapiens (Human), UniProt Q9H0K1). As to the kind of experiment: SIK2 Enzymatic Assay Version 2 (High ATP). As to conditions: 3 mM ATP and 200 μM HDAC5tide final, ADP-Glo Max luminescence. The format is biochemical. Summed up: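 Luminescent ADP-Glo Max read-out: depletion reagent 2 h, then detection reagent 1 h. Before the reaction, compounds were incubated 30 min with enzyme added at 6 nM (twice final concentration), with all steps at room temperature.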
In general terms: ADP-Glo first removes unused ATP, then detects ADP through luciferase.

Sequence of SIK2 (Q9H0K1 whole entry, species assumed): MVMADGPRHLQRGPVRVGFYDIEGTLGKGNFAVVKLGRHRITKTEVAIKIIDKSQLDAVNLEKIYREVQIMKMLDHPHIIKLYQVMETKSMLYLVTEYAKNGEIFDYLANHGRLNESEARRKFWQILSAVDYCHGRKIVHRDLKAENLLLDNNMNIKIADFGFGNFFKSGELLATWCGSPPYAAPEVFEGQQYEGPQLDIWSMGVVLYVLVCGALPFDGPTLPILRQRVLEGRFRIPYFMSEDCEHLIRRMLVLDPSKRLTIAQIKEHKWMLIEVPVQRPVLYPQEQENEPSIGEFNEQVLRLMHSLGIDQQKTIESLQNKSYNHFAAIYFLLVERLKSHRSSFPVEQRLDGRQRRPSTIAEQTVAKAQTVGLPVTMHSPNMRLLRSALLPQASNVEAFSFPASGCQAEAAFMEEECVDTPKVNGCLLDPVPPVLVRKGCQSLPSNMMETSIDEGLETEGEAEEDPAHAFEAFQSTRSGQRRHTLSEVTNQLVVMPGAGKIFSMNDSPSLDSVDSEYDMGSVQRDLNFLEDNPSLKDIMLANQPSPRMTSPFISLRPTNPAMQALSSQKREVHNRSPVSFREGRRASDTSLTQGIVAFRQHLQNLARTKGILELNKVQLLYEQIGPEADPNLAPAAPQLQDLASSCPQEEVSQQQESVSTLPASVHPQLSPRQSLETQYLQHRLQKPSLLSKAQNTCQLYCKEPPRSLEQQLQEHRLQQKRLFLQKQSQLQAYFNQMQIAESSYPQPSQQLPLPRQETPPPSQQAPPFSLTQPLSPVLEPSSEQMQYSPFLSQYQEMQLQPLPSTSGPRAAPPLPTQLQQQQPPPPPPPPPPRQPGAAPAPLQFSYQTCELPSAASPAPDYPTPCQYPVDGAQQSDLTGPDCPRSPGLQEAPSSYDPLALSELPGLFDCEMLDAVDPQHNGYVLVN

Consider `Cc1onc(OC[C@H]2CNCC(C)(C)O2)c1-c1ccn2nc(NC(=O)C3CC3)cc2c1` [Example 86, N-[5-[3-[[(2R)-6,6-dimethylmorpholin-2-yl]methoxy]-5-methyl-isoxazol-4-yl]pyrazolo[1,5-a]pyridin-2-yl]cyclopropanecarboxamide], for which the half-inhibitory concentration (IC50) turned out to be 0.0013 µM. `Cc1cc(Nc2cc3cc(-c4c(OC[C@H]5CCN5CCF)cnn4C)ccn3n2)ncn1` [Example 277, 5-[4-[[(2R)-1-(2-fluoroethyl)azetidin-2-yl]methoxy]-2-methyl-pyrazol-3-yl]-N-(6-methylpyrimidin-4-yl)pyrazolo[1,5-a]pyridin-2-amine] showed an IC50 of 0.0014 µM. Turning to `CO[C@H]1CNC[C@H]1Oc1cnn(C)c1-c1ccn2nc(NC(=O)C3CC3)cc2c1` (stereo in doubt) [Example 5, N-(5-(4-(((3*R,4*S)-4-methoxypyrrolidin-3-yl)oxy)-1-methyl-1H-pyrazol-5-yl)pyrazolo[1,5-a]pyridin-2-yl)cyclopropanecarboxamide], the IC50 is 0.0109 µM. Under `[2H]C([2H])([2H])N1CC[C@H](Oc2noc(C)c2-c2ccn3nc(NC(=O)C4CC4)cc3c2)C1` [Example 384, N-[5-[5-methyl-3-[(3S)-1-(trideuteriomethyl)pyrrolidin-3-yl]oxy-isoxazol-4-yl]pyrazolo[1,5-a]pyridin-2-yl]cyclopropanecarboxamide] stands 0.161 µM.

Turning to `CCN1CC[C@@H]1COc1cnn(C)c1-c1ccn2nc(Nc3ccc(OC)cn3)cc2c1` [Example 166, 5-[4-[[(2R)-1-ethylazetidin-2-yl]methoxy]-2-methyl-pyrazol-3-yl]-N-(5-methoxy-2-pyridyl)pyrazolo[1,5-a]pyridin-2-amine], the IC50 was determined as 0.0018 µM. Under `Cn1ncc(COC2CNC2)c1-c1ccn2nc(NC(=O)C3CC3)cc2c1` [Example 360, N-[5-[4-(azetidin-3-yloxymethyl)-2-methyl-pyrazol-3-yl]pyrazolo[1,5-a]pyridin-2-yl]cyclopropanecarboxamide] stands 0.0328 µM; under `Cc1onc(OC[C@@]23C[C@@H](CO2)N(C)C3)c1-c1ccn2nc(NC(=O)C3CC3)cc2c1` [Example 203, N-[5-[5-methyl-3-[[(1S,4S)-2-methyl-5-oxa-2-azabicyclo[2.2.1]heptan-4-yl]methoxy]isoxazol-4-yl]pyrazolo[1,5-a]pyridin-2-yl]cyclopropanecarboxamide], 0.0274 µM. Under `Cn1ncc(OC[C@H]2CCN2CC#N)c1-c1ccn2nc(NC(=O)C3CC3)cc2c1` [Example 425, N-[5-[4-[[(2R)-1-(cyanomethyl)azetidin-2-yl]methoxy]-2-methyl-pyrazol-3-yl]pyrazolo[1,5-a]pyridin-2-yl]cyclopropanecarboxamide] stands 0.155 µM.

In turn, `Cc1onc(OC[C@H]2CCN2CC#N)c1-c1ccn2nc(NC(=O)C3CC3)cc2c1` [Example 213, N-[5-[3-[[(2R)-1-(cyanomethyl)azetidin-2-yl]methoxy]-5-methyl-isoxazol-4-yl]pyrazolo[1,5-a]pyridin-2-yl]cyclopropanecarboxamide] had an IC50 of 0.0153 µM. Under `Cn1ncc(OCC2(c3ccccc3)CNC2)c1-c1ccn2nc(NC(=O)C3CC3)cc2c1` [Example 44, N-[5-[2-methyl-4-[(3-phenylazetidin-3-yl)methoxy]pyrazol-3-yl]pyrazolo[1,5-a]pyridin-2-yl]cyclopropanecarboxamide] stands 0.0176 µM; under `CN1CC(F)(COc2cnn(C)c2-c2ccn3nc(NC(=O)C4CC4)cc3c2)C1` [Example 405, N-[5-[4-[(3-fluoro-1-methyl-azetidin-3-yl)methoxy]-2-methyl-pyrazol-3-yl]pyrazolo[1,5-a]pyridin-2-yl]cyclopropanecarboxamide], 0.0983 µM. Under `Cc1onc(O[C@@H]2CCNC[C@H]2F)c1-c1ccn2nc(NC(=O)C3CC3)cc2c1` (single isomer, unassigned) [Example 216, N-(5-(3-(((3*R,4*S)-3-fluoropiperidin-4-yl)oxy)-5-methylisoxazol-4-yl)pyrazolo[1,5-a]pyridin-2-yl)cyclopropanecarboxamide] stands 0.0296 µM.

A word on the IC50: it is the concentration that inhibits the measured activity by half. Low values mean inhibition by little substance, high ones a need for much substance.

Source of the values: patent US20240174662A1, “SMALL MOLECULE INHIBITORS OF SALT INDUCIBLE KINASES” (Janssen Biotech, Inc., priority 2021, published 2024).
